Patent US5250695A, “Use of specific counteranions to modify the solubility of tetrazolium salts” (Miles Inc., priority 1992, dated 1993)

Columns and labels:
[1] = cited from earlier work
[2] = Solubility testing of tetrazolium salts in methanol and water (Table I); settings: for solubility in methanol (in words) / solubility in water (in words): discussion of Table I
[3] = Impregnation of zwitterionic nylon fabric with tetrazolium salt and ATP; HPLC of methanol extract, extraction into aqueous impregnation solution (Example II); settings: 1 liter remaining after aqueous ATP impregnation
Description: The solution also contained some formazan which was not quantified.
4 L×0.08 moles/L=0.32 moles of tetrazolium salt impregnated into the membrane during first treatment.
1 L×0.006 moles/L=0.006 moles extracted during aqueous impregnation.

[4] = listed as DCT tetrafluoroborate

SMILES	Solubility, Methanol [2] [m mol L]	Solubility, Water [2] [m mol L]	other results
C=C1CC(C)C2C3Cc4ccc(O)cc4C2(CCN3CC2CCC2)C1 (stereo not drawn) [17-cyclobutylmethyl-3-hydroxy-862-methyl-6-methylene morphinane]			solubility on converting chloride salt to methanesulfonate ([1]; U.S. Pat. No. 4,334,071): enhancement of the solubility
COc1ccc(-c2nn(-c3nc4c(cc(OC)c5ccccc54)s3)[n+](-c3cc(OC)c(OC)c(OC)c3)n2)cc1 [MTM MeSO3^-, 2-(5-methoxynaphtho[1,2-d]thiazol-2-yl)-3-(3,4,5-trimethoxyphenyl)-5-(4-methoxyphenyl) tetrazolium]	48		solubility in methanol (in words) ([2]; listed as MTM methanesulfonate): substantially increased
COc1cc(-[n+]2nc(-c3ccc4c(c3)OCO4)nn2-c2nc(C(F)F)c(Cl)s2)cc(OC)c1OC [DCT MeSO3^-, 2-(4-difluoromethyl-5-chlorothiazol-2-yl)-3-(3,4,5-trimethoxyphenyl)-5-(3,4-methylenedioxyphenyl) tetrazolium]	> 500	73	solubility in methanol (in words) ([2]; listed as DCT methanesulfonate): highly soluble; solubility in water (in words) ([2]; listed as DCT methanesulfonate): highly soluble
COc1ccccc1-[n+]1nc(-c2ccc3c(c2)OCO3)nn1-c1nc(C(F)F)c(Cl)s1 [DCMT Br^-, 2-(4-difluoromethyl-5-chlorothiazol-2-yl)-3-(2 methoxyphenyl)-5-(3,4-methylenedioxyphenyl) tetrazolium]	24	< 1	
COc1ccc(-c2nn(-c3nc4c(cc(OC)c5ccccc54)s3)[n+](-c3cc(OC)c(OC)c(OC)c3)n2)cc1 [MTM NO3^-, 2-(5-methoxynaphtho[1,2-d]thiazol-2-yl)-3-(3,4,5-trimethoxyphenyl)-5-(4-methoxyphenyl) tetrazolium]	7.6		
COc1cc(-[n+]2nc(-c3ccc4c(c3)OCO4)nn2-c2nc(C(F)F)c(Cl)s2)cc(OC)c1OC [DCT Br^-, 2-(4-difluoromethyl-5-chlorothiazol-2-yl)-3-(3,4,5-trimethoxyphenyl)-5-(3,4-methylenedioxyphenyl) tetrazolium]	10	< 1	solubility in methanol (in words) ([2]; listed as DCT bromide): only marginally soluble; solubility in water (in words) ([2]; listed as DCT bromide): only marginally soluble
O=[N+]([O-])c1ccc(-n2nc(-c3ccccc3)n[n+]2-c2ccc(I)cc2)cc1 [INT MeSO3^-, 2-(4-iodophenyl)-3-(4-nitrophenyl)-5-phenyl tetrazolium]		35	
O=[N+]([O-])c1ccc(-n2nc(-c3ccccc3)n[n+]2-c2ccc(I)cc2)cc1 [INT Cl^-, 2-(4-iodophenyl)-3-(4-nitrophenyl)-5-phenyl tetrazolium, reference compound]		3	
COc1ccccc1-[n+]1nc(-c2ccc3c(c2)OCO3)nn1-c1nc(C(F)F)c(Cl)s1 [DCMT MeSO3^-, 2-(4-difluoromethyl-5-chlorothiazol-2-yl)-3-(2 methoxyphenyl)-5-(3,4-methylenedioxyphenyl) tetrazolium]	> 760	248	solubility in methanol (in words) [2]: greatly enhanced; solubility in water (in words) [2]: greatly enhanced
COc1cc(-[n+]2nc(-c3ccc4c(c3)OCO4)nn2-c2nc(C(F)F)c(Cl)s2)cc(OC)c1OC [DCT PrSO3^-, 2-(4-difluoromethyl-5-chlorothiazol-2-yl)-3-(3,4,5-trimethoxyphenyl)-5-(3,4-methylenedioxyphenyl) tetrazolium]	> 650	16	
COc1cc(-[n+]2nc(-c3ccc4c(c3)OCO4)nn2-c2nc(C(F)F)c(Cl)s2)cc(OC)c1OC [DCT NO3^-, 2-(4-difluoromethyl-5-chlorothiazol-2-yl)-3-(3,4,5-trimethoxyphenyl)-5-(3,4-methylenedioxyphenyl) tetrazolium]	22	2	solubility in methanol (in words) ([2]; listed as DCT nitrate): only marginally soluble; solubility in water (in words) ([2]; listed as DCT nitrate): only marginally soluble
COc1cc(-[n+]2nc(-c3ccc4c(c3)OCO4)nn2-c2nc(C(F)F)c(Cl)s2)cc(OC)c1OC [DCT BzSO3^-, 2-(4-difluoromethyl-5-chlorothiazol-2-yl)-3-(3,4,5 trimethoxyphenyl)-(5-(3,4-methylenedioxyphenyl)tetrazolium benzenesulfonate]	> 550		tetrazolium salt extracted from the treated membrane into remaining aqueous solution [3]: 3 mM; solubility in methanol (in words) ([2]; listed as DCT benzenesulfonate): high methanol solubility
COc1ccc(-c2nn(-c3nc4c(cc(OC)c5ccccc54)s3)[n+](-c3cc(OC)c(OC)c(OC)c3)n2)cc1 [MTM PrSO3^-, 2-(5-methoxynaphtho[1,2-d]thiazol-2-yl)-3-(3,4,5-trimethoxyphenyl)-5-(4-methoxyphenyl) tetrazolium]	100		solubility in methanol (in words) ([2]; listed as MTM propanesulfonate): substantially increased
COc1cc(-[n+]2nc(-c3ccc4c(c3)OCO4)nn2-c2nc(C(F)F)c(Cl)s2)cc(OC)c1OC [DCT EtSO3^-, 2-(4-difluoromethyl-5-chlorothiazol-2-yl)-3-(3,4,5-trimethoxyphenyl)-5-(3,4-methylenedioxyphenyl) tetrazolium]	> 600	26	
COc1ccccc1-[n+]1nc(-c2ccc3c(c2)OCO3)nn1-c1nc(C(F)F)c(Cl)s1 [DCMT PrSO3^-, 2-(4-difluoromethyl-5-chlorothiazol-2-yl)-3-(2 methoxyphenyl)-5-(3,4-methylenedioxyphenyl) tetrazolium]	> 760	23	
COc1ccccc1-[n+]1nc(-c2ccc3c(c2)OCO3)nn1-c1nc(C(F)F)c(Cl)s1 [DCMT BF4^-, 2-(4-difluoromethyl-5-chlorothiazol-2-yl)-3-(2 methoxyphenyl)-5-(3,4-methylenedioxyphenyl) tetrazolium]	12.9	2.7	
COc1ccc(-c2nn(-c3nc4c(cc(OC)c5ccccc54)s3)[n+](-c3cc(OC)c(OC)c(OC)c3)n2)cc1 [MTM BzSO3, 2-(5-methoxynaphtho[1,2-d]thiazol-2-yl)-3-(3,4,5-trimethoxyphenyl)-5-(4-methoxyphenyl) tetrazolium]	19		solubility in methanol (in words) ([2]; listed as MTM benzenesulfonate): substantially greater than the nitrate
COc1ccccc1-[n+]1nc(-c2ccc3c(c2)OCO3)nn1-c1nc(C(F)F)c(Cl)s1 [DCMT BuSO3^-, 2-(4-difluoromethyl-5-chlorothiazol-2-yl)-3-(2 methoxyphenyl)-5-(3,4-methylenedioxyphenyl) tetrazolium]	> 700	15	
CN1CC[C@]23c4c5ccc(OCc6ccccc6)c4O[C@H]2[C@@H](O)C=C[C@H]3[C@H]1C5 [benzylmorphine, reference compound]			water solubility after conversion to alkyl sulphonic acid salt ([1]; U.S. Pat. No. 1,892,019, methane or ethanesulfonic acid): increased water solubility
COc1ccccc1-[n+]1nc(-c2ccc3c(c2)OCO3)nn1-c1nc(C(F)F)c(Cl)s1 [DCMT PeSO3^-, 2-(4-difluoromethyl-5-chlorothiazol-2-yl)-3-(2 methoxyphenyl)-5-(3,4-methylenedioxyphenyl) tetrazolium]	> 700	2.6	
COc1cc(-[n+]2nc(-c3ccc4c(c3)OCO4)nn2-c2nc(C(F)F)c(Cl)s2)cc(OC)c1OC [DCT BF4^-, 2-(4-difluoromethyl-5-chlorothiazol-2-yl)-3-(3,4,5-trimethoxyphenyl)-5-(3,4-methylenedioxyphenyl) tetrazolium]	< 16	< 0.5	solubility in methanol (in words) [2, 4]: only marginally soluble; solubility in water (in words) [2, 4]: only marginally soluble
